Literature values as cited in patent US9386793B2, “Compositions and methods for treating obesity and related disorders by characterizing and restoring mammalian bacterial microbiota” (New York University, priority 2010, dated 2016).

Assays:
Clostridium cocleatum = tested on: Clostridium cocleatum; parameters: key: + facilitates growth; w weak growth promotion; +/− growth variable dependent on strain; − no growth effect; conditions: substrate for fermentation
Coprobacillus = tested on: Coprobacillus; parameters: key: + facilitates growth; w weak growth promotion; +/− growth variable dependent on strain; − no growth effect; conditions: substrate for fermentation
Johnsonella = tested on: Johnsonella; parameters: key: + facilitates growth; w weak growth promotion; +/− growth variable dependent on strain; − no growth effect; conditions: substrate for fermentation
Oscillibacter = tested on: Oscillibacter; parameters: key: + facilitates growth; w weak growth promotion; +/− growth variable dependent on strain; − no growth effect; conditions: substrate for fermentation
Sporacetegenium = tested on: Sporacetegenium; parameters: key: + facilitates growth; w weak growth promotion; +/− growth variable dependent on strain; − no growth effect; conditions: substrate for fermentation
[1] = tested on: Coprobacillus, Sporacetigenium, Holdemania, or Clostridium cocleatum; conditions: but not of Johnsonella and Oscillibacter
Holdemania = tested on: Holdemania; parameters: key: + facilitates growth; w weak growth promotion; +/− growth variable dependent on strain; − no growth effect; conditions: substrate for fermentation

| Molecule | growth of Clostridium cocleatum (Clostridium cocleatum) | growth of Coprobacillus (Coprobacillus) | growth of Johnsonella (Johnsonella) | growth of Oscillibacter (Oscillibacter) | growth of Sporacetegenium (Sporacetegenium) | growth and metabolic activity of genera (as follows from Table 1) [1] | growth of Holdemania (Holdemania) |
| --- | --- | --- | --- | --- | --- | --- | --- |
| OC[C@H]1O[C@H](OC[C@H]2O[C@H](O[C@]3(CO)O[C@H](CO)[C@@H](O)[C@@H]3O)[C@H](O)[C@@H](O)[C@@H]2O)[C@H](O)[C@@H](O)[C@H]1O [Raffinose] | + | − | − | − | w | stimulate growth and metabolic activity of two or more genera | w |
| OC[C@H]1O[C@H](OCC2O[C@@H](O)[C@H](O)[C@@H](O)[C@@H]2O)[C@H](O)[C@@H](O)[C@H]1O (stereo partly shown) [Mellibiose] | + |  | − | − | w | stimulate growth and metabolic activity of two or more genera | w |
| OC[C@H]1O[C@H](O[C@H]2[C@H](O)[C@@H](O)[C@H](O)O[C@@H]2CO)[C@H](O)[C@@H](O)[C@@H]1O [Maltose] | + | + | − | − | + | stimulate growth and metabolic activity of two or more genera | + |
| C[C@H](O)[C@H](O)[C@@H](O)[C@@H](O)C=O [Rhamnose] | − | − | − | − | w |  | w |
| OC[C@H]1O[C@H](O[C@H]2O[C@H](CO)[C@@H](O)[C@H](O)[C@H]2O)[C@H](O)[C@@H](O)[C@@H]1O [Trehalose] | − | + | − | − | w | stimulate growth and metabolic activity of two or more genera | w |
| O=C[C@@H](O)[C@H](O)[C@H](O)CO [Arabinose] | − | − | − | +/−^a | + |  | w |
| Inulin | + |  |  |  |  |  |  |
| O=C[C@@H](O)[C@H](O)[C@H](O)CO [D-arabinose] |  |  |  | − |  |  |  |
| O=C(CO)[C@@H](O)[C@H](O)[C@H](O)CO [Fructose] | + | + | − | − | + | stimulate growth and metabolic activity of two or more genera | + |
| OC[C@H]1O[C@@](CO)(O[C@H]2O[C@H](CO)[C@@H](O)[C@H](O)[C@H]2O)[C@@H](O)[C@@H]1O [Sucrose] | + | + | − | − | w | stimulate growth and metabolic activity of two or more genera | + |
| O=C[C@H](O)[C@H](O)[C@H](O)CO [Ribose] | − | − | − | + | +/− |  | w |
| O=C[C@H](O)[C@@H](O)[C@H](O[C@@H]1O[C@H](CO)[C@@H](O)[C@H](O)[C@H]1O)[C@H](O)CO [Cellobiose] | + | + | − | − | w | stimulate growth and metabolic activity of two or more genera | w |
| O=C[C@H](O)[C@@H](O)[C@@H](O)[C@H](O)CO [Galactose] | + | + |  | − | w | stimulate growth and metabolic activity of two or more genera |  |
| OCc1ccccc1O[C@@H]1O[C@H](CO)[C@@H](O)[C@H](O)[C@H]1O [Salicin] | w | + | − | − | − | stimulate growth and metabolic activity of two or more genera | + |
| O=C[C@H](O)[C@@H](O)[C@@H](O)CO [L-arabinose] |  |  |  | + |  |  |  |
| OC[C@H]1O[C@@H](O[C@H]2[C@H](O)[C@@H](O)C(O)O[C@@H]2CO)[C@H](O)[C@@H](O)[C@H]1O (stereo partly shown) [Lactose] | + | + | − | − | w | stimulate growth and metabolic activity of two or more genera | + |
| O=C[C@H](O)[C@@H](O)[C@H](O)CO [Xylose] | − | − | − | + | + |  | w |
| O=c1ccc2cc(O[C@@H]3O[C@H](CO)[C@@H](O)[C@H](O)[C@H]3O)c(O)cc2o1 [Esculin] |  | − | − |  |  |  | + |
